Like-named read-outs stand apart in the source and are kept apart here.
Legend:
[1] = Mole:mole creatinine to creatine ratios required for stability at 2, 22 and 39° C. over pH 3.8 to 8.25 (Example 5); conditions: for time to reach stability: starting ratios close to equilibrium
Protocol: Using solutions from 1. above the following solutions were prepared at room temperature:
Triplicate samples were prepared.
The samples were capped and heat sterilized for 30 minutes at 90° C.
One set of samples was stored at 2° C., another set at 22° C. and the final set stored at 39°.

[2] = not given; remark: listed apart in the source
[3] = Flavored drink of creatine plus creatinine formed by heating: stability at 22° C. and solubility at 3° C. (Example 4); type: physicochemical; conditions: Example 4 drink at 3° C.
Protocol: The solution was cooled to room temperature.
In addition, the solution contained 15 percent Aloe Vera juice, flavoring and dextrose to sweeten.
Solutions from steps 1 and 2 were then mixed together and heated at 90° C. for 30 minutes to sterilize the mixture and then placed in a glass or plastic bottle and stored at 22° C.

[4] = Vandeberg et al 1996 J. Appl. Physiology 80; cited from earlier work
[5] = human body; cited from earlier work
[6] = ingestion of 20 to 30 g per day for several days; cited from earlier work

CN(CC(=O)O)C(=N)N [creatine]
time to reach equilibrium (solution of low pH, composed initially of just creatine, 22° C. (FIG. 2)): up to 8 weeks
time to reach stability (starting with creatine and no creatinine, 22° C.): ≥ 4 weeks
mean change in creatine concentration between weeks 5 and 6 ([1]; 39° C., mean (SD)): +0.76 (SD 1.3) mmol/l
percentage change from weeks 5 and 6 ([1]; 39° C., mean (SD)): 3.1 (3.8) %
time to reach stability ([1]; incubated at 39° C.): < 5 weeks
time to reach stability ([1]; incubated between 2 and 39° C.): ≤ 6 weeks
period remaining creatine stable after heating ([2]; pH's 3 and 4, after 30 minutes at 90° C., 22° C.): at least 95 days
stability of creatine with sufficient creatinine ([2]; pH's 5, 6 and 7, creatinine:creatine monohydrate 1:1, heated 30 minutes at 90° C.): exceptionally stable
loss of creatine during the heating period ([2]; pH's 6 and 7, 90° C. 30 minutes, creatinine 1:1 w/w): no loss of creatine
precipitation in refrigerator [3]: did not precipitate out

Cn1c(=O)c2c(ncn2C)n(C)c1=O [caffeine]
effect on ergogenic action of muscle creatine loading [4]: counteracted the ergogenic action of muscle creatine loading
half life of ingested caffeine [5]: 5 to 6 h

CN(CC(=O)O)C(=N)N.O [creatine monohydrate]
increase in human skeletal muscle total creatine content [6]: greater than 20%
increase between weeks 5 and 6 as creatine monohydrate ([1]; 39° C.): 0.113 g per litre

— patent publication US7150880B2, “Compositions containing creatine and creatinine and a methyl xanthine” (The Original Creatine Patent Co. Ltd., priority 1996, dated 2006)
